Key:
[1] = Preemergence herbicidal activity (% control) against dicot weeds; settings: pre-emergence, 336 h; for activity at 2241.7 g/ha: read-out: Herbicidal activity (% control), preemergence, dicots, 2 lb./A., average, about two weeks after application; for activity at 4483.4 g/ha: read-out: Herbicidal activity (% control), preemergence, dicots, 4 lb./A., average, about two weeks after application
wheat = assay: Crop tolerance (selective herbicidal activity), wheat; assay type: in vivo
Description: (§1) The following test procedure is employed.
(§2) Following the general test procedure of Example 37, diphenyl ethers are evaluated for significant tolerance (as shown by 50% or less kill of the test crop at levels of application which give more than 50% kill of many or all of the weeds of Example 73) towards some or all of the following common agronomic crops (not all compounds tested against all crops): alfalfa, snapbeans, corn, cotton, cucumbers, peanuts, rape, rice, safflower, soybeans, tomatoes, and wheat.

peanuts = assay: Crop tolerance (selective herbicidal activity), peanuts; assay type: in vivo
Description: as §1, §2

soybeans = assay: Crop tolerance (selective herbicidal activity), soybeans; assay type: in vivo
Description: as §1, §2

[2] = Postemergence herbicidal activity (% control) against monocot weeds; assay type: in vivo; settings: post-emergence, 336 h, average, about two weeks after application, read-out: Herbicidal activity (% control), postemergence, monocots; for activity at 2241.7 g/ha: 2 lb./A.; for activity at 4483.4 g/ha: 4 lb./A.
Excerpt: (§3) barnyardgrass (Echinochloa crusgalli) crabgrass (Digitaria spp.) nutsedge (Cyperus esculentus)
(§4) At 2 and 4 pounds per acre:
(§5) **Bermudagrass (Cynodon dactylon)
(§6) *downy brome (Bromus tectorum) foxtail (Setaria faberii)
(§7) Johnsongrass (Sorghum halepense) […]
(§8) quackgrass (Agropyron repens)
(§9) *ryegrass (Lolium perenne)
(§10) *wild oats (Avena factua)
(§11) *yellow millet (Panicum miliaceum)
as §1

rice = assay: Crop tolerance (selective herbicidal activity), rice; assay type: in vivo
Description: as §1, §2

corn = assay: Crop tolerance (selective herbicidal activity), corn; assay type: in vivo
Description: as §1, §2

[3] = Preemergence herbicidal activity (% control) against monocot weeds; assay type: in vivo; settings: pre-emergence, 336 h, average, about two weeks after application, read-out: Herbicidal activity (% control), preemergence, monocots; for activity at 2241.7 g/ha: 2 lb./A.; for activity at 4483.4 g/ha: 4 lb./A.
Excerpt: as §3, §4, §5, §6, §7, §8, §9, §10, §11, §1

[4] = Postemergence herbicidal activity (% control) against dicot weeds; settings: post-emergence, 336 h; for activity at 2241.7 g/ha: read-out: Herbicidal activity (% control), postemergence, dicots, 2 lb./A., average, about two weeks after application; for activity at 4483.4 g/ha: read-out: Herbicidal activity (% control), postemergence, dicots, 4 lb./A., average, about two weeks after application
[5] = postemergence applications or applications on transplanted rice

In the case of `CCNc1cc(Oc2ccc(C(F)(F)F)cc2Cl)ccc1[N+](=O)[O-]` [Example 19, 2-Chloro-α,α,α-trifluoro-p-tolyl-3-ethylamino-4-nitrophenyl ether], the activity at 2241.7 g/ha [1] is reported as 91%, the activity at 4483.4 g/ha [1] is reported as 96% and the Tolerance to wheat (wheat; preemergence applications) is reported as “Tolerance (significant tolerance (as shown by 50% or less kill of the test crop at levels of application which give more than 50% kill of many or all of the weeds of Example 73))”. For the same molecule, the Tolerance to peanuts (peanuts; preemergence applications) was “Tolerance (significant tolerance (as shown by 50% or less kill of the test crop at levels of application which give more than 50% kill of many or all of the weeds of Example 73))”, the Tolerance to soybeans (soybeans; preemergence applications) was “Tolerance (significant tolerance (as shown by 50% or less kill of the test crop at levels of application which give more than 50% kill of many or all of the weeds of Example 73))” and the activity at 2241.7 g/ha [2] was 94%. For the same molecule, the activity at 4483.4 g/ha [2] was 84%, the Tolerance to rice (rice; preemergence applications) was “Tolerance (significant tolerance (as shown by 50% or less kill of the test crop at levels of application which give more than 50% kill of many or all of the weeds of Example 73))” and the Tolerance to corn (corn; postemergence applications) was “Tolerance (significant tolerance (as shown by 50% or less kill of the test crop at levels of application which give more than 50% kill of many or all of the weeds of Example 73))”. For the same molecule, the Tolerance to corn (corn; preemergence applications) was “Tolerance (significant tolerance (as shown by 50% or less kill of the test crop at levels of application which give more than 50% kill of many or all of the weeds of Example 73))”, the activity at 2241.7 g/ha [3] was 77% and the activity at 4483.4 g/ha [3] was 91%. For the same molecule, the activity at 2241.7 g/ha [4] was 97% and the activity at 4483.4 g/ha [4] was 98%.

With `CCN(CC)c1cc(Oc2ccc(C(F)(F)F)cc2Cl)ccc1[N+](=O)[O-]` [Example 21, 2-Chloro-α,α,α-trifluoro-p-tolyl-3-diethylamino-4-nitrophenyl ether] the activity at 2241.7 g/ha [1] was 90%, the activity at 4483.4 g/ha [1] was 99% and the Tolerance to wheat (wheat; postemergence applications) was “Tolerance (significant tolerance (as shown by 50% or less kill of the test crop at levels of application which give more than 50% kill of many or all of the weeds of Example 73))”. The Tolerance to peanuts (peanuts; preemergence applications) was “Tolerance (significant tolerance (as shown by 50% or less kill of the test crop at levels of application which give more than 50% kill of many or all of the weeds of Example 73))”, the Tolerance to soybeans (soybeans; preemergence applications) was “Tolerance (significant tolerance (as shown by 50% or less kill of the test crop at levels of application which give more than 50% kill of many or all of the weeds of Example 73))” and the activity at 2241.7 g/ha [2] was 90%. The activity at 4483.4 g/ha [2] was 74%, the Tolerance to rice (rice; preemergence applications) was “Tolerance (significant tolerance (as shown by 50% or less kill of the test crop at levels of application which give more than 50% kill of many or all of the weeds of Example 73))” and the Tolerance to corn (corn; postemergence applications) was “Tolerance (significant tolerance (as shown by 50% or less kill of the test crop at levels of application which give more than 50% kill of many or all of the weeds of Example 73))”. The Tolerance to corn (corn; preemergence applications) was “Tolerance (significant tolerance (as shown by 50% or less kill of the test crop at levels of application which give more than 50% kill of many or all of the weeds of Example 73))”, the activity at 2241.7 g/ha [3] was 79% and the activity at 4483.4 g/ha [3] was 91%. The activity at 2241.7 g/ha [4] was 94% and the activity at 4483.4 g/ha [4] was 96%.

In the case of `CCC(=O)Nc1cc(Oc2ccc(C(F)(F)F)cc2Cl)ccc1[N+](=O)[O-]` [Example 34], the activity at 2241.7 g/ha [1] is reported as 85%, the activity at 4483.4 g/ha [1] is reported as 52% and the Tolerance to wheat (wheat; postemergence applications) is reported as “Tolerance (significant tolerance (as shown by 50% or less kill of the test crop at levels of application which give more than 50% kill of many or all of the weeds of Example 73))”. The Tolerance to wheat (wheat; preemergence applications) was “Tolerance (significant tolerance (as shown by 50% or less kill of the test crop at levels of application which give more than 50% kill of many or all of the weeds of Example 73))”, the Tolerance to peanuts (peanuts; postemergence applications) was “Tolerance (significant tolerance (as shown by 50% or less kill of the test crop at levels of application which give more than 50% kill of many or all of the weeds of Example 73))” and the Tolerance to peanuts (peanuts; preemergence applications) was “Tolerance (significant tolerance (as shown by 50% or less kill of the test crop at levels of application which give more than 50% kill of many or all of the weeds of Example 73))”. For the same molecule, the Tolerance to soybeans (soybeans; postemergence or layby applications) was “Tolerance (significant tolerance (as shown by 50% or less kill of the test crop at levels of application which give more than 50% kill of many or all of the weeds of Example 73))”, the Tolerance to soybeans (soybeans; preemergence applications) was “Tolerance (significant tolerance (as shown by 50% or less kill of the test crop at levels of application which give more than 50% kill of many or all of the weeds of Example 73))” and the activity at 2241.7 g/ha [2] was 47%. For the same molecule, the activity at 4483.4 g/ha [2] was 32%, the Tolerance to rice (rice; [5]) was “Tolerance (significant tolerance (as shown by 50% or less kill of the test crop at levels of application which give more than 50% kill of many or all of the weeds of Example 73))” and the Tolerance to rice (rice; preemergence applications) was “Tolerance (significant tolerance (as shown by 50% or less kill of the test crop at levels of application which give more than 50% kill of many or all of the weeds of Example 73))”. The Tolerance to corn (corn; postemergence applications) was “Tolerance (significant tolerance (as shown by 50% or less kill of the test crop at levels of application which give more than 50% kill of many or all of the weeds of Example 73))”, the Tolerance to corn (corn; preemergence applications) was “Tolerance (significant tolerance (as shown by 50% or less kill of the test crop at levels of application which give more than 50% kill of many or all of the weeds of Example 73))” and the activity at 2241.7 g/ha [3] was 83%. It also gave an activity at 4483.4 g/ha [3] of 35%, an activity at 2241.7 g/ha [4] of 90% and an activity at 4483.4 g/ha [4] of 89%.

In the case of `CSCCOc1cc(Oc2ccc(C(F)(F)F)cc2Cl)ccc1[N+](=O)[O-]` [Example 40], the activity at 2241.7 g/ha [1] is reported as 98%, the activity at 4483.4 g/ha [1] is reported as 92% and the Tolerance to wheat (wheat; preemergence applications) is reported as “Tolerance (significant tolerance (as shown by 50% or less kill of the test crop at levels of application which give more than 50% kill of many or all of the weeds of Example 73))”. The Tolerance to peanuts (peanuts; postemergence applications) was “Tolerance (significant tolerance (as shown by 50% or less kill of the test crop at levels of application which give more than 50% kill of many or all of the weeds of Example 73))”, the Tolerance to peanuts (peanuts; preemergence applications) was “Tolerance (significant tolerance (as shown by 50% or less kill of the test crop at levels of application which give more than 50% kill of many or all of the weeds of Example 73))” and the Tolerance to soybeans (soybeans; preemergence applications) was “Tolerance (significant tolerance (as shown by 50% or less kill of the test crop at levels of application which give more than 50% kill of many or all of the weeds of Example 73))”. The activity at 2241.7 g/ha [2] was 81%, the activity at 4483.4 g/ha [2] was 64% and the Tolerance to rice (rice; [5]) was “Tolerance (significant tolerance (as shown by 50% or less kill of the test crop at levels of application which give more than 50% kill of many or all of the weeds of Example 73))”. The Tolerance to rice (rice; preemergence applications) was “Tolerance (significant tolerance (as shown by 50% or less kill of the test crop at levels of application which give more than 50% kill of many or all of the weeds of Example 73))”, the Tolerance to corn (corn; postemergence applications) was “Tolerance (significant tolerance (as shown by 50% or less kill of the test crop at levels of application which give more than 50% kill of many or all of the weeds of Example 73))” and the Tolerance to corn (corn; preemergence applications) was “Tolerance (significant tolerance (as shown by 50% or less kill of the test crop at levels of application which give more than 50% kill of many or all of the weeds of Example 73))”. For the same molecule, the activity at 2241.7 g/ha [3] was 88%, the activity at 4483.4 g/ha [3] was 86% and the activity at 2241.7 g/ha [4] was 100%. It also gave an activity at 4483.4 g/ha [4] of 100%.
